From US20180216057A1, “SYSTEM AND METHOD FOR GENERATING BIOLOGICAL TISSUE” (Yale University, priority 2017, published 2018) come the findings set out here.

For test [1], the system named is hiPSC-CM EHTs. Briefly: Inotropic/lusitropic response of hiPSC-CM EHTs to β-adrenergic agonist. Particulars: 100 nM isoproterenol, 8% stretch, 30 minutes equilibration, vs baseline. The test is classed as cell-based, human. On the procedure: To determine twitch force development and kinetics, EHTs were measured as early as 5 days after seeding. Clips holding the EHT were ejected from the frame and picked up by motorized micromanipulators with claw-like extensions, leaving the muscle suspended between an anchoring attachment claw on one end and a force transducer mounted to a second claw on the other (FIG. 5D). The EHT was immersed in a temperature-controlled perfusion bath equipped with electrodes for field stimulus. Throughout measurements, scaffolds were perfused with freshly oxygenated Tyrode's solution (in mM: NaCl 140, KCl5.4, MgCl2 1, HEPES 25, glucose 10, and CaCl 1.8; pH adjusted to 7.35). Used Tyrode's solution was collected in a sealed chamber during testing and checked to ensure adequate consistency of pH. The maximum fluctuation never exceeded 0.05 pH units. All measurements were performed at 35° C. During biomechanical testing, NRVM-EHTs were electrically paced (12 V, 10 ms pulse width at 0.5 Hz) and the resulting twitch force was recorded (FIG. 5E). Human EHTs were paced at 1 Hz. Intracellular calcium concentrations were measured in some constructs using the ratiometric fluorescent indicator Fura-2 AM. Inotropic response. […] Tissues were equilibrated in Tyorde's solution for 30 minutes and measured at 8% stretch. […]

For test [2], the system named is EHTs from neonatal rat ventricular myocytes (NRVMs) seeded into laser-cut decellularized porcine myocardium. Description: Twitch stress and kinetics of NRVM engineered heart tissues cultured with thyroid hormone T3. The format is cell-based. As for the experimental part: To determine twitch force development and kinetics, EHTs were measured as early as 5 days after seeding. Clips holding the EHT were ejected from the frame and picked up by motorized micromanipulators with claw-like extensions, leaving the muscle suspended between an anchoring attachment claw on one end and a force transducer mounted to a second claw on the other (FIG. 5D). The EHT was immersed in a temperature-controlled perfusion bath equipped with electrodes for field stimulus. Throughout measurements, scaffolds were perfused with freshly oxygenated Tyrode's solution (in mM: NaCl 140, KCl5.4, MgCl2 1, HEPES 25, glucose 10, and CaCl 1.8; pH adjusted to 7.35). Used Tyrode's solution was collected in a sealed chamber during testing and checked to ensure adequate consistency of pH. The maximum fluctuation never exceeded 0.05 pH units. All measurements were performed at 35° C. During biomechanical testing, NRVM-EHTs were electrically paced (12 V, 10 ms pulse width at 0.5 Hz) and the resulting twitch force was recorded (FIG. 5E). Human EHTs were paced at 1 Hz. Intracellular calcium concentrations were measured in some constructs using the ratiometric fluorescent indicator Fura-2 AM.
During mechanical testing, EHTs were stretched until reaching their culture length (6 mm) and again after applying 0.1 mm incremental increases until reaching a length of 6.6 mm (representing 10% total stretch). Ten contraction events were recorded and averaged at each level of stretch. The peak stress (mN/mm^2) was computed offline by dividing measured force by the cross-sectional area of the EHT. Characteristics of contraction kinetics were also computed offline, including the time to peak stress (TTP) and time from peak stress to 50% relaxation (RT50). The length-stress gain during isometric stretch (slope of the stretch-peak stress relationship, FIG. 13C) was calculated for each scaffold using engineering strain as the unit for stretch. The force-frequency relationship was determined while keeping EHTs at 10% stretch and taking records at 0.5, 1, 2, 4, 6, and 8 Hz. During force-frequency measurements, pacing capture of EHTs was ensured by checking real time oscilloscope readings of the force transducer voltage output.
Thyroid hormone speeds contractile kinetics. To assess the sensitivity of this system towards changes in contractility and twitch kinetics, EHTs were subjected to a pharmacological perturbation known to alter the intrinsic properties of cardiac muscle. In rodents, an increase in thyroid hormone (T3) promotes expression of the faster α isoform of myosin heavy chain23. […] EHTs were characterized functionally and then returned to culture conditions at days 5, 8, 12, and 15.

Setting [3] is: 15 days old NRVM EHTs after T3 treatment, 2 Hz pacing.

As to `CC(C)NCC(O)c1ccc(O)c(O)c1` (stereo not shown) [Isoproterenol], the “lusitropic response (twitch kinetics TTP and RT50)” value in test [1] is “shorter TTP and RT50”.
For the compound `N[C@@H](Cc1cc(I)c(Oc2ccc(O)c(I)c2)c(I)c1)C(=O)O` [T3], in test [2] (setting [3]), the RT50 entry is given as “around 59 ms” and the TTP was determined as 83 ms. Moreover, the “time to peak stress (TTP)” value in test [2] (NRVM EHTs, T3 10 ng/ml in culture, after 15 days in culture, untreated 113±6 ms) amounted to 77 ± 2 ms. Besides, the “time from peak stress to 50% relaxation (RT50)” value in test [2] (NRVM EHTs, T3 10 ng/ml in culture, after 15 days in culture, untreated 130±3 ms) was found to be 63 ± 3 ms. Besides, in test [2] (T3 10 ng/ml, days 5, 8, 12, 15, 2-way repeated measures ANOVA), the “effect on evolution of peak stress development across time points” value was “no significant effect”. Besides, in test [2] (T3 10 ng/ml, every time point analyzed (days 5, 8, 12, 15), p<0.001), the “effect on rates of contraction and relaxation vs non-treated control” value is “significantly accelerated rates of contraction and relaxation”.
